Laboratory results taken from ChEMBL document CHEMBL1201862, “PubChem BioAssay data set” (2004).
Calls of active or inactive are those of the source.

What was measured:
[1] = target: Latent membrane protein 1 (Human herpesvirus 4 (strain B95-8), UniProt P03230); assay: TES1-eGFP NF-kB reporter inhibition versus Tet-On dsRED, dose response, selectivity assay for LMP1 NF-kB inhibitor project, imaging, HEK293T, dual-color eGFP/dsRED, cherry-picks (AID 588398); type: functional, cell-based
[2] = Luminescence Cell-Based Dose Retest to Confirm Inhibitors of Cancer Stem Cells. [Related pubchem assays (depositor defined):AID2717, AID2721]; type: functional; details: Homo sapiens
Beta Lactamase = Beta Lactamase (Pseudomonas aeruginosa, UniProt Q932Y6); assay: beta-lactamase reporter inhibitor potency, dose response, artefact control for TLR9-MyD88 binding inhibitor project, BLA reporter cells, FRET fluorescence (AID 588341); type: cell-based;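 note: cell based assay in CHO-K1 cells stably expressing beta-lactamase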
Beta Lactamase, sequence (Q932Y6 whole entry, the tested form may be a part): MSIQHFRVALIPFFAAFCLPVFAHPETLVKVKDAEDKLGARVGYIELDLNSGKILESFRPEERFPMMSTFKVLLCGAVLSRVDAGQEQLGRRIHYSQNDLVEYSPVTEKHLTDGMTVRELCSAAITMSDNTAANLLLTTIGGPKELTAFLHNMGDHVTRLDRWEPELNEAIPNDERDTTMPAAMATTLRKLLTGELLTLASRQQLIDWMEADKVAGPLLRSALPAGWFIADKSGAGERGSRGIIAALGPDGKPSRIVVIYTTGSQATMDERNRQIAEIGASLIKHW

CHO = assay: cytotoxicity in TLR9-MyD88 CHO cells, dose response, cytotoxicity control for TLR9-MyD88 binding inhibitor project, cell-based, luminescence (AID 588339); type: functional, hamster; details: Cricetulus griseus;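 note: CHO cells stably coexpressing TLR9 and MyD88 fusions from primary screen; compound exposure lasted 48 hours before viability readout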
[3] = target: T1, Endoribonuclease toxin MazF (Escherichia coli K-12, UniProt P0AE70); assay: fluorescent RNA oligo signal without MazF, dose response, counter-screen for MazEF activator project, biochemical, fluorescence, single-stranded RNase substrate (AID 588502); type: functional
T1 sequence (P0AE70 whole entry): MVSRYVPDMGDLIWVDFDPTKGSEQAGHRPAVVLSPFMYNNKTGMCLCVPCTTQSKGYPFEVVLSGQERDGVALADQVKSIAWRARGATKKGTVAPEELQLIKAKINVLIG

[4] = target: T1, Endoribonuclease toxin MazF; assay: MazF toxin RNase activators, dose response, biochemical, fluorescence, single-stranded RNA substrate, uHTS hits (AID 588481); type: functional
HEK293 [5] = assay: inhibitors of LMP1-driven NF-kB reporter, dose response, cell-based, HEK293, luciferase, cherry-pick (AID 588343); type: functional; details: Homo sapiens
INS1 = assay: beta cell apoptosis inhibitors, cytokine rescue, dose response, luminescence, retest (AID 449756); type: functional, cell-based; details: Rattus norvegicus;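 note: cell death triggered by IL-1 beta plus TNF-alpha plus IFN-gamma mixture; protective hits raise ATP signal compared with cytokine alone wells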
[6] = target: Serine/threonine-protein phosphatase (Candida dubliniensis (strain CD36 / CBS 7987 / NCPF 3949 / NRRLY-17841) (Yeast), UniProt B9W6M3); assay: calcineurin pathway inhibitors in yeast reporter, dose response, S. cerevisiae, CDRE-lacZ, luminescence, secondary (AID 2388); type: functional, cell-based;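 note: yeast reporter cells carrying a calcineurin-responsive lacZ construct stimulated with calcium chloride; luminescent beta-galactosidase reporter signal in whole cells rather than isolated phosphatase activity; potency for inhibition where a drop in reporter signal means calcineurin blockade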
Serine/threonine-protein phosphatase, sequence (B9W6M3 whole entry): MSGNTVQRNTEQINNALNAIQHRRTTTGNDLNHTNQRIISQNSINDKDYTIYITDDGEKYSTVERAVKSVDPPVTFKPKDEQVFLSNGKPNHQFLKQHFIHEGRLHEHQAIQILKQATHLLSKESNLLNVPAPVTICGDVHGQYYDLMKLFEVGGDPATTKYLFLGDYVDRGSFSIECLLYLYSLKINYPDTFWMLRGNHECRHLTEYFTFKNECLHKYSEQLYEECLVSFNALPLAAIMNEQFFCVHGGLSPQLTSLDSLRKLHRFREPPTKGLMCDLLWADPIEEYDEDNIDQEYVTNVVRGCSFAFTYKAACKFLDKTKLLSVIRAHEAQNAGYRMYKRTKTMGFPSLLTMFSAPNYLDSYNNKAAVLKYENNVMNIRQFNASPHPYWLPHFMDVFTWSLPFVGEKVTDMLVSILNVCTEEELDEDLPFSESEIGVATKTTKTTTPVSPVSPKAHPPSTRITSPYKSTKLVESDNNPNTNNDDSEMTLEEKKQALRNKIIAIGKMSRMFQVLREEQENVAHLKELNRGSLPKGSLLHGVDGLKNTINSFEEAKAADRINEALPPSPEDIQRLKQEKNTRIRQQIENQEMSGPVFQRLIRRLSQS

[7] = C. albicans growth with fluconazole, confirmation, fluorescence, retest (AID 2467); type: functional, cell-based
[8] = NIH-3T3 fibroblast cytotoxicity, dose response, cytotoxicity control, cell-based, fluorescence, Alamar Blue, secondary assay (AID 2327); type: functional;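 note: NIH-3T3 mouse fibroblasts cultured with fluconazole at 8 µg/mL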
[9] = target: ATP-dependent molecular chaperone HSP82 (Candida albicans (strain WO-1) (Yeast), UniProt C4YTQ8); assay: loss of DOC-induced GRE-beta-galactosidase reporter signal, dose response, Hsp90 inhibitor project, S. cerevisiae, luminescence (AID 2400); type: functional, cell-based;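 note: beta-galactosidase luminescence from glucocorticoid response element reporter as proxy for Hsp90 function; inhibitor potency where signal loss means Hsp90 inhibition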
ATP-dependent molecular chaperone HSP82, sequence (C4YTQ8 whole entry): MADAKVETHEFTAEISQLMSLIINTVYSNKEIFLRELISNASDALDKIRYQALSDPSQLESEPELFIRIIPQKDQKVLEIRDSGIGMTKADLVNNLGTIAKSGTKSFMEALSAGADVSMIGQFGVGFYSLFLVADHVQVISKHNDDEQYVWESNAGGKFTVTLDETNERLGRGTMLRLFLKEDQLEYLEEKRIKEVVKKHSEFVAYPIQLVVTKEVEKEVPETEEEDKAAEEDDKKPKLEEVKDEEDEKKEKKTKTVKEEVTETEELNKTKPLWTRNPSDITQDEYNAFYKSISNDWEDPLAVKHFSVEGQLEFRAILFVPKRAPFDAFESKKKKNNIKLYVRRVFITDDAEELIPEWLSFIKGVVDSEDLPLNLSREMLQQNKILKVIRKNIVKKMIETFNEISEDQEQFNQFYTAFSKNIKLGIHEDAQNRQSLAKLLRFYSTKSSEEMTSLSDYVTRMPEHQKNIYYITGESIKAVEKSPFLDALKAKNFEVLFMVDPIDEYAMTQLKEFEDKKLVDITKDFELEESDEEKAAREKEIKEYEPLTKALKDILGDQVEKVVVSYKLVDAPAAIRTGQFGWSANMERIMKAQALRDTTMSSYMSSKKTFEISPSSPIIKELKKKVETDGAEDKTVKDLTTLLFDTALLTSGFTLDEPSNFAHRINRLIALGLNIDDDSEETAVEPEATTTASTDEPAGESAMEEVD

[10] = target: T2, Female germline-specific tumor suppressor gld-1 (Caenorhabditis elegans, UniProt Q17339); assay: inhibitors of GLD-1 binding to TGE RNA, dose response, biochemical, fluorescence polarization, C. elegans (AID 2802);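 note: fluorescence polarization of labeled TGE RNA bound by purified gld-1 protein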
T2 sequence (Q17339 whole entry): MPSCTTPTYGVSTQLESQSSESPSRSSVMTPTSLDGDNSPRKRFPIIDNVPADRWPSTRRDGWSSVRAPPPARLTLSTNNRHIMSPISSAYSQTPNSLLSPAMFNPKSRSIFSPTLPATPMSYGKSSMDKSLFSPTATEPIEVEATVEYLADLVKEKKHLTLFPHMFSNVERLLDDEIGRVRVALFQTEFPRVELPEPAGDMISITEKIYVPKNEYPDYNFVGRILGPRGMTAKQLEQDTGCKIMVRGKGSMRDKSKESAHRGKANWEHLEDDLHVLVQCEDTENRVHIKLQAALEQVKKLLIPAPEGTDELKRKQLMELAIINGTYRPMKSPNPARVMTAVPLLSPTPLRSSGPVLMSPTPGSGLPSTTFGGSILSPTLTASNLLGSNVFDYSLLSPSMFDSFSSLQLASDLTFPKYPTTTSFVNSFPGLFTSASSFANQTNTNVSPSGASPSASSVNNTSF

Protein Rev = target: T3, Protein Rev (Human immunodeficiency virus type 1 group M subtype B (isolate HXB2)(HIV-1), UniProt P04618); assay: inhibitors of Rev binding to RRE RNA, dose response, biochemical, fluorescence polarization, HIV-1 (AID 434976); set-up: species or system Human immunodeficiency virus 1
T3 sequence (P04618 whole entry): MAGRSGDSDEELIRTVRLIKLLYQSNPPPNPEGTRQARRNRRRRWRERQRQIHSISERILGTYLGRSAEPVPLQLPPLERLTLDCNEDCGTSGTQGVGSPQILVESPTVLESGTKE

Cytochrome P450 3A4 = Cytochrome P450 3A4 (Homo sapiens, UniProt P08684);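 note: CYP3A4 tested as one member of a cytochrome P450 panel screen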
Cytochrome P450 3A4, sequence (P08684 whole entry, the tested form may be a part): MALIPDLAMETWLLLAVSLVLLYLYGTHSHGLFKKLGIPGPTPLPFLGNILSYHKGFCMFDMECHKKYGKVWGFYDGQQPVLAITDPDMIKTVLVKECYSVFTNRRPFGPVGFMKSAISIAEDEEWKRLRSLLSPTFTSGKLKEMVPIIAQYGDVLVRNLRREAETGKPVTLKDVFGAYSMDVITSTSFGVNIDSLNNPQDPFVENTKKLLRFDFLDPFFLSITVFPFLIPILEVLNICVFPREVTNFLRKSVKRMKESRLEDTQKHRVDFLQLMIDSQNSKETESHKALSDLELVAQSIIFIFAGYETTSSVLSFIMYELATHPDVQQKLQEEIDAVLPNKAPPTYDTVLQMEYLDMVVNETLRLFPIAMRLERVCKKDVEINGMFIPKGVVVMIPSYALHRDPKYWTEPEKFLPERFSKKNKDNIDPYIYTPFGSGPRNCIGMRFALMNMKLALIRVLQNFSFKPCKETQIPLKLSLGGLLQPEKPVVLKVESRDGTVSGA

[11] = inhibitors of HIV Env-driven cell fusion, dose response, cherry-pick (AID 652057); type: functional, cell-based
[12] = ZM109 Env clade C HIV-1 fusion inhibitors, dose response, HeLa effector, CEM target cells, luciferase, cherry-pick (AID 652058); type: functional, cell-based
[13] = inhibitors of clade B AD8 Env fusion, dose response, cell-based, cherry-pick (AID 652062); type: functional;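 note: luciferase signal from cell-cell fusion driven by HIV-1 clade B AD8 Env; potency is for inhibitors of fusion seen as a drop in luminescence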
[14] = CEM21 lymphoblast cell cytotoxicity, dose response, cytotoxicity control for viral fusion inhibitor project, CellTiter-Glo luminescence, cherry-picked (AID 652042); type: functional, cell-based;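 note: potency for signal decrease meaning cytotoxicity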
[15] = off-target signal loss in HeLa-CEM21 co-culture – HeLa F-luc CTL cells, cherry-picked, counter-screen for HIV-1 Env fusion inhibitor project, dose response (AID 652040); type: functional, cell-based;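 note: potency for signal decrease marking cytotoxic or nonspecific inhibition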
[16] = target: T4, Polyadenylate-binding protein 1 (Homo sapiens, UniProt P11940); assay: PABP1 MLLE–PAM2 binding inhibitor potency, dose response, biochemical, fluorescence polarization, FITC-PAM2 peptide (AID 602259); type: functional; details: read-out: IC50_Mean
T4 sequence (P11940 whole entry): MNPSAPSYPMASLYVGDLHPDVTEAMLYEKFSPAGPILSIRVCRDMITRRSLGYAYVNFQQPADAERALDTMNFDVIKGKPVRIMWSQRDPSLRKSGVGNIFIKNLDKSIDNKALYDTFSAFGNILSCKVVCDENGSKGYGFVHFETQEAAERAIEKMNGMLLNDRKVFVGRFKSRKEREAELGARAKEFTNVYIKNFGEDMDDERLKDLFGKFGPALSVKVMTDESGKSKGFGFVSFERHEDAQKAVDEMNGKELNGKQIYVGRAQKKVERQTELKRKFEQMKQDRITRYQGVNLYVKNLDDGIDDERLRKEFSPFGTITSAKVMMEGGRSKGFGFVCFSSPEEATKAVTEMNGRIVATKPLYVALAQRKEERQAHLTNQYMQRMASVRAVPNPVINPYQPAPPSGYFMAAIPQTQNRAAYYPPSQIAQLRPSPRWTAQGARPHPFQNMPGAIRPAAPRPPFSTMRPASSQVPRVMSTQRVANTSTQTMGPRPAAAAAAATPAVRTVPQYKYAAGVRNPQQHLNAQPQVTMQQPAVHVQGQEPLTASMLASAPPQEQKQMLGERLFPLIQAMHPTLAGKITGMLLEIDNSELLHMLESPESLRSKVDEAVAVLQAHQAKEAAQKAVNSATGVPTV

[17] = target: T4, Polyadenylate-binding protein 1; assay: PABP1 MLLE–PAM2 interaction inhibitors, dose response, miRNA deadenylation inhibitor project, biochemical, fluorescence polarization, Cy5-PAM2 peptide, secondary (AID 602260); type: functional; details: read-out: IC50_Mean
[18] = target: T5, Nuclear receptor subfamily 0 group B member 1 (Homo sapiens, UniProt P51843); assay: Luminescence-based cell-based high throughput dose response assay for inhibitors of the orphan nuclear receptor subfamily 0, group B, member 1 (DAX1; NR0B1). [Related pubchem assays (depositor defined):AID504766, AID504790]; type: functional
T5 sequence (P51843 whole entry): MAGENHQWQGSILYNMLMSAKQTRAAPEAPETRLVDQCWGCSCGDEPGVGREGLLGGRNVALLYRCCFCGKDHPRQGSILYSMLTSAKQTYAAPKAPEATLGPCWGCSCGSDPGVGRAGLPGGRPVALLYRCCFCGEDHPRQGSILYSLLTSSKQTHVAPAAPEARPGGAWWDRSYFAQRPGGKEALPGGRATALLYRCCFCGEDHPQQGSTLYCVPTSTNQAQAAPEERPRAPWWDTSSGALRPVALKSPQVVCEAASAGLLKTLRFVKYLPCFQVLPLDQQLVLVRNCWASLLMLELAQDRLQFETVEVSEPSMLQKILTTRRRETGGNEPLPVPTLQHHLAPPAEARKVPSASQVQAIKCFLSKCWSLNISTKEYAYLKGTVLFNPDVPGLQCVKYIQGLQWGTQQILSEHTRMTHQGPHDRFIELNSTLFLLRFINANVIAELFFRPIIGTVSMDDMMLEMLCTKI

HEK293 [19] = assay: cells; type: functional, cell-based; details: Homo sapiens
BJ [20] = assay: cytotoxicity toward BJ-TERT-LT-ST fibroblasts, dose response, cell-based, RAS-independent, luminescence (AID 1935); type: functional; details: Homo sapiens;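 note: BJ fibroblasts immortalized with TERT plus LT and ST oncogenes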
[21] = cytotoxicity toward DRD oncogenic fibroblasts, dose response, cell-based, non-viral oncogenic, luminescence (AID 1934); type: functional; details: Homo sapiens
[22] = target: Sphingosine 1-phosphate receptor 2 (Homo sapiens, UniProt O95136); assay: Dose Response Cell Based Assay for Antagonists of the S1P2 Receptor. [Related pubchem assays: 856, 736 ]; type: functional
Sphingosine 1-phosphate receptor 2, sequence (O95136 whole entry): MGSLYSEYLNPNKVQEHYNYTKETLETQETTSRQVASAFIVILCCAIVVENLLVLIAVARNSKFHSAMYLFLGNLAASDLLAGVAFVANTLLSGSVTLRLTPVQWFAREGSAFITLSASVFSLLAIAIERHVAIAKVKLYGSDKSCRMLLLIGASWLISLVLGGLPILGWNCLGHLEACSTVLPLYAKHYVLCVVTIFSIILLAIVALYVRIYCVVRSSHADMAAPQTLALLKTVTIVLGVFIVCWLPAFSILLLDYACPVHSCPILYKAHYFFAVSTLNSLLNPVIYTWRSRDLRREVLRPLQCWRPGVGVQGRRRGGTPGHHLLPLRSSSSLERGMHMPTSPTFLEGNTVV

[23] = target: DNA dC->dU-editing enzyme APOBEC-3A (Homo sapiens, UniProt P31941); assay: APOBEC3A DNA deaminase inhibitors, dose response, biochemical (AID 504722); type: functional
DNA dC->dU-editing enzyme APOBEC-3A, sequence (P31941 whole entry): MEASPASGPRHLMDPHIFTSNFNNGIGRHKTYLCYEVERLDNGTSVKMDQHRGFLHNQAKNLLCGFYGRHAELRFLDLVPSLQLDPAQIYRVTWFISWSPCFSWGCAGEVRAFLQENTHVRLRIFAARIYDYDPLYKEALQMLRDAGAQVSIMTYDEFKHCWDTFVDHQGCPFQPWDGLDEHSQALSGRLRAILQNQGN

BJ [24] = assay: cytotoxicity toward BJ-TERT fibroblasts, dose response, cell-based, RAS-independent, luminescence (AID 1933); type: functional; details: Homo sapiens
[25] = target: DNA dC->dU-editing enzyme APOBEC-3G (Homo sapiens, UniProt Q9HC16); assay: Dose Response confirmation of small molecule APOBEC3G DNA Deaminase Inhibitors via a fluorescence-based single-stranded DNA deaminase assay. [Related pubchem assays (depositor defined):AID493012, AID493028]; type: functional
DNA dC->dU-editing enzyme APOBEC-3G, sequence (Q9HC16 whole entry): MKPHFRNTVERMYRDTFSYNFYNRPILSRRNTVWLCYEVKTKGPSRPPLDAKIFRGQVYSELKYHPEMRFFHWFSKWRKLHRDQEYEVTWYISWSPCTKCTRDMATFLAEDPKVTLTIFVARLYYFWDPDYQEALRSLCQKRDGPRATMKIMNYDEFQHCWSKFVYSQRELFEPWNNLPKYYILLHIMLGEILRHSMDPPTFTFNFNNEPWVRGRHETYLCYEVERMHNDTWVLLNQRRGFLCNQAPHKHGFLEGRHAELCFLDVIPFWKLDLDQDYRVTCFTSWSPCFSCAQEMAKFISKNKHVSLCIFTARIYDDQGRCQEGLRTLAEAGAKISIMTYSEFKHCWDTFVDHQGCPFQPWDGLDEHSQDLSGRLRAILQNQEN

BJ [26] = assay: cells; type: functional, cell-based; details: Homo sapiens
[27] = target: T6, Mannose-6-phosphate isomerase (Homo sapiens, UniProt P34949); assay: human PMI inhibitors, high substrate, primary screen, biochemical, fluorescence intensity, high mannose 6-phosphate (AID 1220)
T6 sequence (P34949 whole entry): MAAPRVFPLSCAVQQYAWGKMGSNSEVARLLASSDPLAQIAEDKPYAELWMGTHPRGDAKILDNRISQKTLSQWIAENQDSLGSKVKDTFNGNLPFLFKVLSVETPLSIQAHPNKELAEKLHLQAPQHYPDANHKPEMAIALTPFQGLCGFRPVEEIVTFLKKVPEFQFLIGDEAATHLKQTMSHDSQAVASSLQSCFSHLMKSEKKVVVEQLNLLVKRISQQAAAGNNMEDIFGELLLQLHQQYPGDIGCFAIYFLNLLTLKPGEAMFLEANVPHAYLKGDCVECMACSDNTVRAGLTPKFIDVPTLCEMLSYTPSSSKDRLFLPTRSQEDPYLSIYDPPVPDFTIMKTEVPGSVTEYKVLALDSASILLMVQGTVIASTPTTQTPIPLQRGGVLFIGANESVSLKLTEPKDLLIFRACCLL

BJ [28] = assay: cytotoxicity toward Ras-transformed BJeLR fibroblasts, dose response, cell-based, alamar blue fluorescence, cherrypicked samples (AID 2631); type: functional; details: Homo sapiens;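 note: confirmatory dose-response assay in RAS-dependent BJ fibroblasts engineered with TERT, LT and ST, with cytotoxicity read by fluorescence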

Latent membrane protein 1, sequence (P03230 whole entry): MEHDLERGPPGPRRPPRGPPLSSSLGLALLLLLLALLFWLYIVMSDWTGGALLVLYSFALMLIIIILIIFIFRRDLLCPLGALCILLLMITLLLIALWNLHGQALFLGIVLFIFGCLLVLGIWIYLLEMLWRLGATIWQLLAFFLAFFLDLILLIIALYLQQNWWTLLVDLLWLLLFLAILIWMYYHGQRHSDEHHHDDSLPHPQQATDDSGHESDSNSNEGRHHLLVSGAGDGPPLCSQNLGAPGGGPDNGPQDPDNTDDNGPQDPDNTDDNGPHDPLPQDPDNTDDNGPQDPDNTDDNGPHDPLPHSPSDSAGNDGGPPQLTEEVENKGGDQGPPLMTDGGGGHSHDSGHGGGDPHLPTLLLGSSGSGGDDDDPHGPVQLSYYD

COc1cccc(-c2nc(NCc3ccccc3)c3ccccc3n2)c1O
AC50 [1]: 91 µM (active)

CCC(C)Sc1ccc(-c2nc3cnccn3c2NC2CCCCC2)cc1 (configuration not stated)
AC50 [2]: 3.63 µM (active)
IC50 (Beta Lactamase): 3.68 µM (active)
IC50 (CHO): 21.4 µM (inactive)

Cc1cc(NC(=O)CSc2nc(-c3ccccc3Cl)nc3c2c(=O)n(C)c(=O)n3C)no1
EC50 [3]: > 99 µM (inactive)
EC50 [4]: > 99 µM (inactive)

Cc1ccc(S(=O)(=O)NC(CC(C)C)C(=O)NCC(c2ccco2)N2CCCCC2)cc1 (configuration not stated)
AC50 [1]: 24.5 µM (active)
AC50 (HEK293 [5]): 1.8 µM (active)

COC(=O)CSc1nc2ccc(C)cc2cc1C#N
EC50 [3]: > 99 µM (inactive)
EC50 [4]: > 99 µM (inactive)

Cc1ccc(NC(=O)c2ccccc2NS(=O)(=O)c2ccc(Cl)s2)cc1
AC50 (INS1): 4.46 µM (active)
EC50 [6]: > 180 µM (inactive)
EC50 [7]: 0.215 µM (active)
EC50 [8]: 20.5 µM (active)
EC50 [9]: 7.91 µM (active)

Cc1ccc(S(=O)(=O)N[C@H](C(=O)Oc2ccc3c(C(F)(F)F)cc(=O)oc3c2)c2ccccc2)cc1
IC50 [10]: 3.89 µM (active)
IC50 (Beta Lactamase): 3.73 µM (active)
IC50 (Protein Rev): 26.9 µM (not active)
IC50 (CHO): > 49.7 µM (inactive)
AC50 (Cytochrome P450 3A4): 25.1 µM (inconclusive)

C(=C\c1ccccc1)/CN1CCN(c2ncnc3c2oc2ccccc23)CC1
AC50 [11]: 1.98 µM (active)
AC50 [12]: 0.57 µM (active)
EC50 [6]: > 180 µM (inactive)
AC50 [13]: 9.31 µM (active)
AC50 [14]: 65.4 µM (active)
EC50 [7]: 0.041 µM (active)
EC50 [8]: > 160 µM (inconclusive)
AC50 [15]: 25.9 µM (active)
EC50 [9]: > 160 µM (inactive)

Oc1c(/C=N/Cc2ccccc2)sc2ccccc12
IC50 [16]: > 66 µM (inactive)
IC50 [17]: > 66 µM (inactive)
IC50 [18]: > 67.5 µM (inactive)
IC50 (HEK293 [19]): > 22.5 µM (inactive)

CC1=C/C(=N\OS(=O)(=O)c2ccccc2)C=CC1=O
EC50 (BJ [20]): 4.43 µM (inconclusive)
EC50 [21]: 6.19 µM (active)
IC50 [22]: 5.98 µM (active)
IC50 [23]: > 100 µM (inactive)
EC50 (BJ [24]): 2.56 µM (active)
IC50 [25]: 7.43 µM (active)
EC50 (BJ [26]): 3.33 µM (active)
IC50 [27]: 2.71 µM (active)
EC50 (BJ [28]): 0.542 µM (inconclusive)
